The values that follow come from patent US4714619A, “Aminomalonyl alanine compounds as dietary sweeteners” (priority 1986, dated 1987).

A short description of experiment [1]: Comparative taste test, D- versus L-configuration (Table 2, FIG. 3). Details: Sweet? (average score) / Bitter? (average score) / Salty? (average score) / Off Taste? (average score) / After Taste? (average score): scale not given here. On the procedure:
The compounds were dissolved in distilled water at the concentrations specified in Table 2. Solutions were made up and kept overnight in a refrigerator. The following day, they were poured into individual graduated plastic cups (10 ml per cup) and allowed to warm to room temperature. A taste panel was convened and testing begun that same day. Tasting and evaluation was done by the standard protocol developed by Dr. Robert Gesteland of Taste and Smell Consulting Group, Inc.
The first solution tasted (reference standard for the panel) was 0.25M sucrose. Other solutions were tasted in radomized fashion. The random order was arrived at as follows:
i. An ordered list of the compounds and concentrations was prepared (26 solutions in all).
ii. 0.25M sucrose was designated as 1.
iii. A standard table of random numbers was used in which the numbers were grouped as two-digit numbers. A point in the table was chosen at random (blind pointing). The first solution in the list was given the first random number in the sequence (read right-to-left, up-to-down) which is between 2 and 26. The second solution in the list was given the next random number in the sequence between 2 and 26, etc. Repeat numbers were ignored.
iv. Solutions were then labeled A (for number 1) B (for random number 2), C-Z.
v. Panelists were instructed to taste the solutions in alphabetical order.
With the assistance of Taste and Smell Consulting Group, Inc., taste panel members were trained adn tested for their ability to discriminate sucrose solutions of varying concentrations. In summary it may be stated that all 9 panel members had acceptble correlation scores. Their results were in good agreement with those which have been previously reported in siilar types of studies. For the test series the correlations for each panelist for sucrose and aspartame were acceptable as were the overall results obtained by averaging individual scores. The results of the taste panel are set forth in Table 2 wherein the parenthetical figures represent the standard error values for the number above.

A short description of experiment [2]: Taste panel (Table 1, FIG. 2). The settings on record: normalized to 100.

Counter-ions that a name gives are not always drawn. Like-named read-outs stand apart in the source and are kept apart here.

As to `OC[C@H]1O[C@@](CO)(O[C@H]2O[C@H](CO)[C@@H](O)[C@H](O)[C@H]2O)[C@@H](O)[C@@H]1O` [Sucrose], the “After Taste? (average score)” value in experiment [1] (62.0000 Millimolar) was found to be 10; in experiment [1] (125.0000 Millimolar) it was 4; in experiment [1] (250.0000 Millimolar), 15; in experiment [1] (500.0000 Millimolar), 9; in experiment [1] (1000.0000 Millimolar), 8; in experiment [2] (62.0000 Millimolar), 0. Moreover, the “After Taste? (average score)” value is listed as 5 in experiment [2] (125.0000 Millimolar), 0 in experiment [2] (250.0000 Millimolar), 7 in experiment [2] (500.0000 Millimolar) and 30 in experiment [2] (1000.0000 Millimolar). Moreover, the “Bitter? (average score)” value in experiment [1] (62.0000 Millimolar) was determined as 6; in experiment [1] (125.0000 Millimolar), 2; in experiment [1] (250.0000 Millimolar), 3; in experiment [1] (500.0000 Millimolar) it was 0; in experiment [1] (1000.0000 Millimolar), 0; in experiment [2] (62.0000 Millimolar), 3. Besides, the “Bitter? (average score)” value in experiment [2] (125.0000 Millimolar) was 2; in experiment [2] (250.0000 Millimolar), 0; in experiment [2] (500.0000 Millimolar), 6; in experiment [2] (1000.0000 Millimolar), 0. The “Off Taste? (average score)” value in experiment [1] (62.0000 Millimolar) is recorded as 9; in experiment [1] (125.0000 Millimolar), 3; in experiment [1] (250.0000 Millimolar), 12; in experiment [1] (500.0000 Millimolar), 10; in experiment [1] (1000.0000 Millimolar) it was 12; in experiment [2] (62.0000 Millimolar), 4. Besides, the “Off Taste? (average score)” value was found to be 4 in experiment [2] (125.0000 Millimolar), 0 in experiment [2] (250.0000 Millimolar), 5 in experiment [2] (500.0000 Millimolar) and 0 in experiment [2] (1000.0000 Millimolar). The “Pleasant? (average score)” value in experiment [1] (62.0000 Millimolar) is 17; in experiment [1] (125.0000 Millimolar), 21; in experiment [1] (250.0000 Millimolar) it was 34; in experiment [1] (500.0000 Millimolar), 35; in experiment [1] (1000.0000 Millimolar), 28; in experiment [2] (62.0000 Millimolar) it was -4. The “Pleasant? (average score)” value in experiment [2] (125.0000 Millimolar) stood at 18; in experiment [2] (250.0000 Millimolar), 49; in experiment [2] (500.0000 Millimolar), 32; in experiment [2] (1000.0000 Millimolar) it was 26. The “Salty? (average score)” value stood at 9 in experiment [1] (62.0000 Millimolar); 1 in experiment [1] (125.0000 Millimolar); 7 in experiment [1] (250.0000 Millimolar); 0 in experiment [1] (500.0000 Millimolar); 0 in experiment [1] (1000.0000 Millimolar); 0 in experiment [2] (62.0000 Millimolar). The entries for the “Salty? (average score)” value in experiment [2] (125.0000 Millimolar), in experiment [2] (500.0000 Millimolar) and in experiment [2] (1000.0000 Millimolar) were 8, 12 and 1, respectively. Besides, the “Sweet? (average score)” value in experiment [1] (62.0000 Millimolar) was found to be 3; in experiment [1] (125.0000 Millimolar) it was 30; in experiment [1] (250.0000 Millimolar), 52; in experiment [1] (500.0000 Millimolar) it was 78; in experiment [1] (1000.0000 Millimolar) it was 95; in experiment [2] (62.0000 Millimolar) it was 13. For the same molecule, the “Sweet? (average score)” value in experiment [2] (125.0000 Millimolar) is on record as 30; in experiment [2] (250.0000 Millimolar), 64; in experiment [2] (500.0000 Millimolar), 75; in experiment [2] (1000.0000 Millimolar), 97.

For `CC(NC(=O)C(N)C(=O)O)C(=O)OC1CCCCC1C` (mixture of isomers) [(23), DL-Aminomalonyl-D-alanine trans-2-Methylcyclohexyl Ester Citrate], the “sweet taste (words)” value in experiment [1] was “sweet”.

For the molecule `C[C@@H](NC(=O)C(N)C(=O)O)C(=O)OC1C2(C)CCC(C2)C1(C)C` (mixture of isomers) [Compound (21), DL-Aminomalonyl-D-alanine Fenchyl Ester], in experiment [1], the “sweet taste (words)” value is “sweet”. Further, in experiment [1] (0.0306 Millimolar), the “After Taste? (average score)” value was determined as 12, the “Bitter? (average score)” value turned out to be 3, the “Off Taste? (average score)” value stood at 13 and the “Pleasant? (average score)” value is -9. Further, in experiment [1] (0.0306 Millimolar), the “Salty? (average score)” value is reported as 4 and the “Sweet? (average score)” value amounted to 1. For the same molecule, in experiment [1] (0.3064 Millimolar), the “After Taste? (average score)” value is 50, the “Bitter? (average score)” value is 29, the “Off Taste? (average score)” value worked out at 56 and the “Pleasant? (average score)” value is on record as -57. In experiment [1] (0.3064 Millimolar), the “Salty? (average score)” value came to 9 and the “Sweet? (average score)” value is on record as 8. For the same molecule, in experiment [1] (3.0637 Millimolar), the “After Taste? (average score)” value is recorded as 79, the “Bitter? (average score)” value is recorded as 90, the “Off Taste? (average score)” value was 99 and the “Pleasant? (average score)” value is on record as -83. In addition, in experiment [1] (3.0637 Millimolar), the “Salty? (average score)” value worked out at 62 and the “Sweet? (average score)” value is reported as 13.

For `C[C@@H](NC(=O)C(N)C(=O)O)C(=O)OC12CC3CC(CC(C3)C1)C2` (mixture of isomers) [(22), DL-Aminomalonyl-D-alanine 1-Adamantyl Ester Citrate], the “sweet taste (words)” value in experiment [1] is “sweet”.

For the molecule `CC(C)OC(=O)[C@H](C)NC(=O)C(N)C(=O)O` (mixture of isomers) [Compound (20), DL-Aminomalonyl-L-alanine Isopropyl Ester], the “sweet taste (words)” value in experiment [1] was “not sweet”. Moreover, in experiment [1] (0.0431 Millimolar), the “After Taste? (average score)” value was 0, the “Bitter? (average score)” value turned out to be 9, the “Off Taste? (average score)” value was found to be 5 and the “Pleasant? (average score)” value was 14. For the same molecule, in experiment [1] (0.0431 Millimolar), the “Salty? (average score)” value worked out at 3 and the “Sweet? (average score)” value came to 3. Further, in experiment [1] (0.4307 Millimolar), the “After Taste? (average score)” value is 8, the “Bitter? (average score)” value is recorded as 14, the “Off Taste? (average score)” value stood at 8 and the “Pleasant? (average score)” value is 5. For the same molecule, in experiment [1] (0.4307 Millimolar), the “Salty? (average score)” value was 16 and the “Sweet? (average score)” value came to 8. Also, in experiment [1] (4.3066 Millimolar), the “After Taste? (average score)” value turned out to be 5, the “Bitter? (average score)” value is recorded as 0, the “Off Taste? (average score)” value is listed as 5 and the “Pleasant? (average score)” value was found to be 19. Moreover, in experiment [1] (4.3066 Millimolar), the “Salty? (average score)” value was determined as 0 and the “Sweet? (average score)” value is listed as 5. In experiment [1] (listed as 20), the “sweet taste (words)” value is reported as “non-sweet”.
